Data taken from publication PMC9578143, “Small-Molecule Ebselen Binds to YTHDF Proteins Interfering with the Recognition of N^6-Methyladenosine-Modified RNAs” (ACS Pharmacology & Translational Science, 2022).
Values joined by “and” are separate entries in the source; they are usually repeats but may differ in a detail not shown here. Equal values may be shown once. “Also recorded” adds a separate entry of the source. Read-outs that look alike come from different tables or passages of the source. Values belong to the molecule of their own block, whether it stands above or below them.

Key:
YTHDF1 domain = biological target: T1, YTHDF1 domain (Homo sapiens, UniProt Q9BYJ9); test: High-throughput screen, tryptophan quenching, Z-score; format: binding; conditions: 5 μM protein, compounds at 10 μM
T1 construct: The human YTHDF1 YTH domain (amino acids 365–554, PDB: 4RCJ); host or cells: E. coli BL21(DE3)
T1 sequence (Q9BYJ9 365-554): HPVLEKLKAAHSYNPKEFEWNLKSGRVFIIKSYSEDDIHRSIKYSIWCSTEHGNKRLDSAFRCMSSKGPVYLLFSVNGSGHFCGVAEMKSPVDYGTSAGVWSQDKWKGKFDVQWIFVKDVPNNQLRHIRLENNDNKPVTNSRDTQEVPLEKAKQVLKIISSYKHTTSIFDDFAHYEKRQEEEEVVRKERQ
Description: A Z factor of 0.53 was obtained. The high-throughput screen was performed by using an automatic liquid handling (Freedom EVO, Tecan), filling black 384-well plates with 15 μL of 5 μM protein in 20 mM Tris (pH 7.5), 150 mM NaCl, and 10% glycerol, and then by adding the library of compounds at a final concentration of 10 μM. Fluorescence was measured immediately after compound addition. The library used was the Spectrum Collection (Microsource Discovery System, Inc.), composed of 2560 compounds, of whom 60% are clinically used drugs, 25% natural products, and 15% other bioactive molecules. The Z-score was calculated as (X – μp)/σp, where X is the fluorescence intensity of the protein. Candidate molecules were considered all of the ones that were under the threshold of Z = −3, while all of the ones over that value were discarded.

YTHDF1 YTH domain [1] = biological target: T2, YTHDF1 YTH domain (Homo sapiens, UniProt Q9BYJ9); test: Tryptophan fluorescence quenching assay; format: binding
T2 construct: The human YTHDF1 YTH domain (amino acids 365–554, PDB: 4RCJ); host or cells: E. coli BL21(DE3)
T2 sequence (Q9BYJ9 365-554): T1 sequence (Q9BYJ9 365-554)
Description: Fluorescence was measured using a Tecan Infinite 200 Microplate reader (Tecan Group Ltd.), setting the […] wavelength at 288 nm and collecting the emission data at 330 nm.

[2] = biological target: T3, YTH domain of YTHDF1 / biotinylated RNA probe 5′-Bi-CCGAm6ACUGUC-3′ (Homo sapiens, UniProt Q9BYJ9); test: AlphaScreen competitive assay, saturation binding; conditions: for Disruption of the YTH/RNA interaction (AlphaScreen, in words): YTHDF1 YTH domain
T3 construct: The human YTHDF1 YTH domain (amino acids 365–554, PDB: 4RCJ); host or cells: E. coli BL21(DE3)
T3 sequence (Q9BYJ9 365-554): T1 sequence (Q9BYJ9 365-554)
Description: The Amplified Luminescent Proximity Homogeneous Assay (ALPHA Assay) was performed in white 384-well Optiplates (PerkinElmer) in a final volume of 20 μL, and it was first optimized by titrating both the protein and the biotinylated RNA probe (5′-Bi-CCGAm6ACUGUC-3′, Dharmacon) to find the appropriate right protein/RNA ratio before the saturation of the detection signal. […] Anti-His acceptor beads (PerkinElmer) (20 μg/mL final concentration) and streptavidin donor beads (20 μg/mL final concentration) were added and the reaction was incubated in the dark at room temperature for 1 h to reach equilibrium. Light signals were detected with an Enspire Multimode Plate reader (PerkinElmer). […] The IC50 of ebselen was determined from the nonlinear regression fits of the data.

YTHDF1 YTH domain [3] = biological target: T4, YTHDF1 YTH domain (human, UniProt Q9BYJ9 365-554); test: dynamic mass redistribution; conditions: EC50; immobilized protein; m6A; Fluorescence: 20 mM Hepes pH 7.5, 150 mM NaCl, 10% glycerol; REMSA: 20 mM Hepes pH 7.5, 50 mM KCl, BSA, 0.25% glycerol, gel at 4 C; AlphaScreen: 25 mM Hepes pH …
T4 sequence: T1 sequence (Q9BYJ9 365-554)

YTHDF1 YTH domain [4] = biological target: T4, YTHDF1 YTH domain; test: tryptophan fluorescence quenching; EC50; 5 uM protein; Fluorescence: 20 mM Hepes pH 7.5, 150 mM NaCl, 10% glycerol; REMSA: 20 mM Hepes pH 7.5, 50 mM KCl, BSA, 0.25% glycerol, gel at 4 C; AlphaScreen: 25 mM Hepes pH; conditions: protein: recombinant; tags: 6xHis (C-terminal as stated); single strand
YTHDF1 YTH domain [5] = biological target: T4, YTHDF1 YTH domain; test: tryptophan fluorescence quenching; 5 uM protein; Fluorescence: 20 mM Hepes pH 7.5, 150 mM NaCl, 10% glycerol; REMSA: 20 mM Hepes pH 7.5, 50 mM KCl, BSA, 0.25% glycerol, gel at 4 C; AlphaScreen: 25 mM Hepes pH; conditions: protein: recombinant; tags: 6xHis (C-terminal as stated); single strand
[6] = Table 1, read-out: EC50 (μM) (Tryptophan quenching)
[7] = 5 μM protein, read-out: EC50 (tryptophan quenching)

Molecule: O=C1C(Cl)=C(Cl)C(=O)C(Cl)=C1Cl [CHLORANIL]
Mean(FI.z-score) (YTHDF1 domain): -4.349

Molecule: O=c1c2ccccc2sn1-c1ccccc1 [Compound 2, 2-Phenylbenzo[d]isothiazol-3(2H)-one]
Tryptophan fluorescence quenching / binding to the YTH domain (in words) (YTHDF1 YTH domain [1]): maintained both capacities
EC50 (YTHDF1 YTH domain [1]; [6]): 1.76 ± 0.02 µM
IC50 ([2]; 50 nM RNA, 50 nM protein, compound 0–100 μM): 23140 ± 80 nM
Disruption of the YTH/RNA interaction (AlphaScreen, in words) [2]: maintained both capacities

Molecule: O=C1c2ccccc2CN1c1ccccc1 [Compound 3, 2-phenylisoindolin-1-one]
Tryptophan fluorescence quenching / binding to the YTH domain (in words) (YTHDF1 YTH domain [1]): completely abolished; also recorded: failed to generate a dose–response curve
EC50 (YTHDF1 YTH domain [1]; [6]): > 100 µM
Disruption of the YTH/RNA interaction (AlphaScreen, in words) [2]: completely abolished; also recorded: failed

Molecule: m6A RNA probe used in DMR
K half (YTHDF1 YTH domain [3]): 63.8 nM

Molecule: O=C1C(Cl)=C(Cl)C(=O)c2c(O)ccc(O)c21 [2,3-DICHLORO-5,8-DIHYDROXYNAPTHOQUINONE]
Mean(FI.z-score) (YTHDF1 domain): -3.853

Molecule: 5-′CCGAm6ACUGUC-3′
EC50 (YTHDF1 YTH domain [1]; [7]): 0.14 µM and 0.139 µM

Molecule: CCGAACUGUC (ssRNA, m6A at position 5) [GAm6ACU ssRNA]
apparent K (half saturation) (YTHDF1 YTH domain [4]): 140 nM

Molecule: CCGAACUGUC (ssRNA) [GAACU ssRNA unmethylated]
binding result (YTHDF1 YTH domain [5]): no binding

Molecule: CCGGACUGUC (ssRNA, m6A at position 5) [GGm6ACU ssRNA (m6A-RNA)]
apparent K (half saturation) (YTHDF1 YTH domain [4]): 1050 nM

Molecule: CCGGACUGUC (ssRNA) [GGACU ssRNA unmethylated]
binding result (YTHDF1 YTH domain [5]): no binding

The next lines start with the values.

EC50 (YTHDF1 YTH domain [1]; [6]): 2.83 ± 1.08 µM
Molecule: O=c1c2ccccc2sn1CCN1CCOCC1 [Compound 9, 2-(2-Morpholinoethyl)benzo[d]isothiazol-3(2H)-one]

EC50 (YTHDF1 YTH domain [1]; [6]): 1.69 ± 0.26 µM
Molecule: CCN(CC)CCn1sc2ccccc2c1=O [Compound 7, 2-(2-(Diethylamino)ethyl)benzo[d]isothiazol-3(2H)-one]

EC50 (YTHDF1 YTH domain [1]; [7]): 596 µM
Molecule: CNc1ncnc2c1ncn2[C@@H]1O[C@H](CO)[C@@H](O)[C@H]1O [m6A, N^6-methyladenosine]

Tryptophan fluorescence quenching / binding to the YTH domain (in words) (YTHDF1 YTH domain [1]): not upon adenosine addition
Molecule: Nc1ncnc2c1ncn2[C@@H]1O[C@H](CO)[C@@H](O)[C@H]1O [adenosine]

EC50 (YTHDF1 YTH domain [1]; [6]): 1.63 ± 0.89 µM
Molecule: O=c1c2ccccc2sn1-c1ccc(F)cc1 [Compound 5, 2-(4-Fluorophenyl)benzo[d]isothiazol-3(2H)-one]

EC50 (YTHDF1 YTH domain [1]; [6]): 3.35 ± 2.2 µM
Molecule: O=c1c2ccccc2[se]n1CCN1CCOCC1 [Compound 8, 2-(2-Morpholinoethyl)benzo[d][1,2]selenazol-3(2H)-one]

EC50 (YTHDF1 YTH domain [1]; [6]): 2.9 ± 1.8 µM
Molecule: O=C(NCCN1CCOCC1)c1ccccc1SSc1ccccc1C(=O)NCCN1CCOCC1 [Compound 10, 2,2′-Disulfanediylbis(N-(2-morpholinoethyl)benzamide)]

EC50 (YTHDF1 YTH domain [1]; [6]): 1.48 ± 0.26 µM
Molecule: CCN(CC)CCn1[se]c2ccccc2c1=O [Compound 6, 2-(2-(Diethylamino)ethyl)benzo[d][1,2]selenazol-3(2H)-one]

EC50 (YTHDF1 YTH domain [1]; [6]): 1.89 ± 0.33 µM
Molecule: O=c1c2ccccc2[se]n1-c1ccc(F)cc1 [Compound 4, 2-(4-Fluorophenyl)benzo[d][1,2]selenazol-3(2H)-one]
